# Measurements from patent US7960380B2, “Non-anilinic derivatives of isothiazol-3(2H)-one 1,1-dioxides as liver X receptor modulators” (AstraZeneca AB, priority 2005, dated 2011).
# pEC50: −log10 of the molar value.
# Legend:
# [1] = molecular target: T1, human LXRalpha ligand binding domain (GAL4 fusion) (Homo sapiens, UniProt Q13133); assay: Transactivation (reporter gene) assay in U2/OS cells (LXRalpha); format: cell-based; settings: LXRα, GAL4-LXR LBD luciferase reporter
# T1 construct: human LXRalpha (amino acid 205-447); expressed in transfected cells; host or cells: U2/OS osteosarcoma cells (electroporated with pSGGAL-LXRalpha)
# T1 sequence (Q13133 205-447): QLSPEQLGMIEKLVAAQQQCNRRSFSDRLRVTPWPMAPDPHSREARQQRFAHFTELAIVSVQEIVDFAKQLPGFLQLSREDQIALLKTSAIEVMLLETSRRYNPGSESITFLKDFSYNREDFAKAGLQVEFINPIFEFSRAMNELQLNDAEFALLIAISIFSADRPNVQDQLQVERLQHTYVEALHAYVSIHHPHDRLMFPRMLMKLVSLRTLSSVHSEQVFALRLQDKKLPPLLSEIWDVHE
# Method: Expression vectors were prepared by inserting the ligand binding domain cDNA (complementary DNA) of human LXRalpha (amino acid 205-447) and LXRbeta (amino acid 216-461) in frame with, 3′ to the yeast GAL4 transcription factor DNA binding domain and the nuclear localization signal from the T-antigen of Polyoma Virus in the eucaryotic expression vector pSG5 (Stratagene). The resulting expression vectors pSGGAL-LXRalpha and pSGGAL-LXRbeta were used in cotransfection experiments together with the pGL3 luciferase reporter plasmid containing a minimal SV40 promoter (Promega) and five copies of the UAS GAL4 recognition site. 2.5 μg pSGGAL-LXRalpha or beta were mixed with 25 μg pGL3 5×UAS and 22.5 μg pBluscript (Stratagene) in 0.95 mL ice cold PBS containing approx. 4-9 milj. U2/OS osteosarcoma cells. After a five minute incubation on ice the cell/DNA mixture was electroporated in 0.4 cm cuvettes at 960 μF, 230 V using a BioRad electroporator and diluted to 0.32 milj cells/mL in complete DMEM [Dulbecco's Modified Eagle Medium w/o phenol red, (Gibco 11880-028) including 10% FBS (Foetal Bovine Serum), 1% PEST (Penicillin Streptomycin), 20 mM Hepes, 2 mM L-Glutamine and 0.36% Glucose Gibco 31966-021] medium. […] Luciferase activity was measured as Luminescence in the Wallac Victor reader after 15 min. incubation at room temperature. […]
# [2] = molecular target: T2, human LXRalpha Ligand Binding Domain (amino acid 205-447) (Homo sapiens, UniProt Q13133); assay: Co-activator recruitment assay (LXRalpha); format: biochemical; settings: LXRα; SRC-1 peptide recruitment, time-resolved fluorescence; read-out: EC50 for LXRα in the coactivator recruitment assay
# T2 construct: human LXRalpha (amino acid 205-447); made in house; host or cells: E. coli
# T2 sequence (Q13133 205-447): T1 sequence (Q13133 205-447)
# Source text: The Ligand Binding Domain (LBD) of human LXRalpha (amino acid 205-447) and LXRbeta (amino acid 216-461) was produced by recombinant techniques in E coli. A fragment of the human Steroid Receptor Co-Activator-1 (SRC-1) was produced as a synthetic peptide. An anti-6×His-antibody coupled with Europium (Eu^3+) was used to recognize the His-tag on the LXR-LBD and Allophycocyanin (APC) coupled to streptavidin was used to recognize the biotinylated SRC-1. Agonist binding to LXRalpha or LXRbeta enhances the affinity of LXR towards SRC-1 and thereby brings Eu^3+ and APC in close proximity. Eu^3+ is excited at 337 nm and emitts light at 620 nm. This emission, when in close proximity, excites APC to emit light at 665 nm.
# Compounds (10 mM) in DMSO were diluted (1/3) in DMSO in 10 concentrations. This dilution plates were further diluted in buffer {20 mM [Tris(hydroxymethyl)aminomethane] pH 7.5, 0.125% CHAPS {3-[(3-Cholamidopropyl)dimethylammonio]-1-propanesulfonate}, 2 mM DTT (Dithiothreitol) and 0.05% BSA (Bovine Serum Albumin)} in order to reduce DMSO concentration, 0.5 μl to 13.5 μl. To this, 6 μl assay mix was added, giving an maximal assay concentration of 83 μM, and the plates (384-well V-groove plates) were incubated at room temperature for 60 to 80 min. […] Time-resolved fluorescence readings were done in a Wallac Victor reader at 665 nm followed by reading at 615 nm. […]
pEC50 [1],pEC50 [2],SMILES
5.87,,"O=C1C(NCCCCc2ccccc2)=C(c2ccccc2)S(=O)(=O)N1C1CCCC1 [Example 2, 2-Cyclopentyl-5-phenyl-4-[(4-phenylbutyl)amino]isothiazol-3(2H)-one 1,1-dioxide]"
,6.24,"CCCCCCNC1=C(c2ccccc2)S(=O)(=O)N(CCCC)C1=O [Example 6, 2-Butyl-4-(hexylamino)-5-phenylisothiazol-3(2H)-one 1,1-dioxide]"
6.57,,"CCCCN1C(=O)C(NCCCOc2cccc(NC(C)=O)c2)=C(c2ccccc2)S1(=O)=O [Example 7, N-(3-{3-[(2-Butyl-1,1-dioxido-3-oxo-5-phenyl-2,3-dihydroisothiazol-4-yl)amino]propoxy}phenyl)acetamide]"
,5.85,"CC(C)N1C(=O)C(NC2CCN(CCC#N)CC2)=C(c2ccccc2)S1(=O)=O [Example 10, 3-{4-[(2-Isopropyl-1,1-dioxido-3-oxo-5-phenyl-2,3-dihydroisothiazol-4-yl)amino]piperidin-1-yl}propanenitrile]"
